Read-outs that look alike come from different tables or passages of the source.
Columns and labels:
DAAO = test system: DAAO; parameters: method as in PMID 20801337; conditions: D-Trp as substrate for DAAO; cited from earlier work
in vivo [1] = assay: in vivo; parameters: species or system Male SD rats; conditions: D-Trp i.p. 100 mg·kg^−1; for AUC / Cmax / k el / half-life: male, SD, rat, in vivo, ip, 100 mg/kg; for AUC: read-out: AUC of plasma D-Trp; for Cmax: read-out: Cmax of plasma D-Trp; for k el: read-out: Ke of plasma D-Trp (converted); for half-life: read-out: t1/2 of plasma D-Trp
Description: (§1) Administration of Ket to rats was carried out as previously reported.[9]) Ketamine hydrochloride (Wako Pure Chemicals Co., Ltd., Osaka, Japan) was dissolved in physiological saline ([…]) and then intraperitoneally (i.p.) administered (30 mg·kg^−1) to 7-week-old rats daily for 5 consecutive days. The control animals received only saline (1 mL·kg^−1·day^−1). The rats were used for experiments 4 weeks after cessation of the ketamine or saline treatment.
[…] A heparinized syringe with a 25-gauge needle was used to draw blood (approximately 0.20 mL) from the left jugular vein 0.5, 1, 1.5, 2, 3, 4, 5, and 6 h after administration of D-Trp. The blood was treated in a similar manner as described in previous paper.[17]) Plasma D-Trp concentration was determined by our previously published HPLC method.[17])
(§2) Pharmacokinetic parameters obtained in the present study were determined by a simplex method analysis or moment analysis. Statistical analyses were performed using a one-way analysis of variance (ANOVA), followed by Bonferroni’s multiple comparison test. A p value below 0.05 was judged as a significant difference.

in vivo [2] = assay type: in vivo, Male SD rats
Description: as §1
A solution of MPC (5.0 or 50 mg·kg^−1·3 mL^−1) was prepared in PBS/ethanol/PEG (2.8/0.1/0.1) and was i.p. administered to rats. A heparinized syringe with a 25-gauge needle was used to draw blood (approximately 0.20 mL) from the left jugular vein at 0.083, 0.25, 0.5, 1, 2, and 3 h after administration of MPC (5.0 mg·kg^−1, n = 4), or at 0.083, 0.25, 0.5, 1, and 3 h after administration of MPC (50 mg·kg^−1, n = 5–6). Before administration of either dose of MPC, blood (approximately 0.20 mL) was obtained from each rat and used as the control. The blood was centrifuged at 3,000 g for 10 min at 4℃ to obtain plasma. The plasma was transferred to another tube and stored at −80℃ until it was analyzed.
For determining the plasma concentration of MPC, 2 calibration curves (31.25–250 µM and 200–800 µM) were constructed. Ten microliters of PBS or rat blank plasma was spiked with 10 µL of 31.25–800 µM MPC dissolved in CH3CN and 10 µL of 200 µM I.S. dissolved in CH3CN, and vigorously mixed with 70 µL of CH3CN/MeOH (50/50). In the case of plasma samples from the rats administered MPC, 10 µL of CH3CN was used instead of MPC in CH3CN.
After centrifugation at 2,500 rpm for 5 min, 50 µL of the supernatant was sampled and evaporated in vacuo. The obtained residue was dissolved in 100 µL of the mobile phase, 60 µL (31.25–250 µM) or 20 µL (200–800 µM) of the final solution after filtration with Durapore® (0.2 µm membrane, Millipore K.K., Tokyo, Japan), and was injected into the LC-MS system.
The LC-MS apparatus comprised an Agilent 1200 series HPLC (Agilent Technologies, CA, U.S.A.) and a time of flight (TOF)-MS, JMS-T100 LP AccuTOF LC-Plus, equipped with an electrospray ionization (ESI) source (JEOL Co. Ltd., Tokyo, Japan). The separation column used in this study was TSKgel ODS-80Ts QA (150 mm × 2.0 mm; i.d., 5 µm) (Tosoh Corporation, Tokyo, Japan). For the mobile phase, 0.1% HCO2H in H2O/CH3CN (95/5) was eluted isocratically at 0.16 mL·min^−1. Column temperature was maintained at 40℃. The conditions for ESI-MS detection were as follows: positive ion mode; needle voltage was set at 2,000 V; and the ring lens and orifice 1 and 2 voltages were set at 8, 49, and 4 V, respectively. Nitrogen was used as the nebulizing and desolvating gas, and the pressure was constant at 0.617 MPa. The desolvation chamber and orifice 1 temperatures were 250℃ and 80℃, respectively. The data were obtained using Mass Center software, MS-56010MP (JEOL).
as §2

[3] = target: T1, D-amino acid oxidase (DAAO) (Rattus norvegicus, UniProt O35078); assay: DAAO-inhibitory effect of MPC in vivo (change of plasma D-Trp concentration after MPC pretreatment); parameters: species or system Male SD rats; conditions: MPC 50 mg·kg^−1 i.p. 30 min before D-Trp 100 mg·kg^−1 i.p.
T1 construct: Male SD rats were purchased from Charles River Japan; from tissue; host or cells: whole animal (male SD rats); DAAO activity is attributed to liver and kidney cells
Description: as §1
D-Trp was dissolved in PBS (10 mg·mL^−1) and administered i.p. to control or Ket-treated rats (100 mg·kg^−1; n = 3–5) at 30 min after i.p. administration of MPC (50 mg·kg^−1). A heparinized syringe with a 25-gauge needle was used to draw blood (approximately 0.20 mL) from the left jugular vein 0.5, 1, 1.5, 2, 3, 4, 5, and 6 h after administration of D-Trp. The blood was treated in a similar manner as described in previous paper.[17]) Plasma D-Trp concentration was determined by our previously published HPLC method.[17])
as §2

[4] = rat, in vivo, 10 mg/kg; cited from earlier work
[5] = rat; cited from earlier work
[6] = Ket-treated rat, with pretreatment of MPC (50 mg·kg^−1)
[7] = Ket-treated rat, without pretreatment of MPC
[8] = control rat, with pretreatment of MPC (50 mg·kg^−1)
[9] = control rat, without pretreatment of MPC

T1 sequence (O35078 whole entry): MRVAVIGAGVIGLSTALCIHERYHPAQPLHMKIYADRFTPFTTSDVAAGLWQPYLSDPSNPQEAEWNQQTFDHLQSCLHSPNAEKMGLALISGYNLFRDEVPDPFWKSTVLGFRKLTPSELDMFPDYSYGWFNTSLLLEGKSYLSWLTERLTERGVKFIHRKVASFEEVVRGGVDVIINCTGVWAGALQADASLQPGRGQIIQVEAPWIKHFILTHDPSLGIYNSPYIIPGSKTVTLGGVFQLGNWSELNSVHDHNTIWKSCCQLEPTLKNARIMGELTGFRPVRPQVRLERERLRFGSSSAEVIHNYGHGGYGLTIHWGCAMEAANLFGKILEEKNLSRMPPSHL

For `N[C@H](Cc1c[nH]c2ccccc12)C(=O)O` [D-Trp, D-tryptophan], the Km (DAAO) is listed as 845 µM, the “CL of plasma D-Trp” value (in vivo [1]; [6]) is listed as 6.73 ± 1.67 mL/min/kg and the “Vd of plasma D-Trp” value (in vivo [1]; [6]) is listed as 0.544 ± 0.09 L/kg. The “CL of plasma D-Trp” value (in vivo [1]; [7]) was 11.6 ± 1.83 mL/min/kg, the “Vd of plasma D-Trp” value (in vivo [1]; [7]) was 0.703 ± 0.07 L/kg and the “CL of plasma D-Trp” value (in vivo [1]; [8]) was 3.05 ± 0.17 mL/min/kg. The “Vd of plasma D-Trp” value (in vivo [1]; [8]) was 0.237 ± 0.02 L/kg, the “CL of plasma D-Trp” value (in vivo [1]; [9]) was 10 ± 0.33 mL/min/kg and the “Vd of plasma D-Trp” value (in vivo [1]; [9]) was 0.712 ± 0.04 L/kg. The AUC (in vivo [1]; [6]) was 983 ± 128 µM·h, the Cmax (in vivo [1]; [6]) was 608 ± 115 µM and the k el (in vivo [1]; [6]) was 0.0002 s⁻¹. It also gave a half-life (in vivo [1]; [6]) of 60.2 ± 6.1 min, an AUC (in vivo [1]; [7]) of 719 ± 63.6 µM·h and a Cmax (in vivo [1]; [7]) of 587 ± 33.5 µM. For the same molecule, the k el (in vivo [1]; [7]) was 0.000269 s⁻¹, the half-life (in vivo [1]; [7]) was 43.7 ± 2.79 min and the AUC (in vivo [1]; [8]) was 2080 ± 138 µM·h. It also gave a Cmax (in vivo [1]; [8]) of 1130 ± 75 µM, a k el (in vivo [1]; [8]) of 0.000214 s⁻¹ and a half-life (in vivo [1]; [8]) of 54 ± 0.1 min. The AUC (in vivo [1]; [9]) was 693 ± 42.9 µM·h, the Cmax (in vivo [1]; [9]) was 567 ± 42.6 µM and the k el (in vivo [1]; [9]) was 0.000236 s⁻¹. It also gave a half-life (in vivo [1]; [9]) of 49.1 ± 1.3 min.

With `Cc1cc(C(=O)O)n[nH]1` [MPC, 3-methylpyrazole-5-carboxylic acid] the “differences in PK parameters (Cmax, t1/2, AUC) of plasma MPC between control and Ket-treated rats” value (in vivo [2]; MPC i.p. 5.0 mg·kg^−1) was “no remarkable differences”, the “time at which the maximum concentration (Cmax) of plasma MPC was reached” value (in vivo [2]; MPC i.p. 5.0 mg·kg^−1, Ket-treated rats) was 0.5 h and the “time at which the maximum concentration (Cmax) of plasma MPC was reached” value (in vivo [2]; MPC i.p. 5.0 mg·kg^−1, control rats) was 0.5 h. For the same molecule, the “Cmax value of plasma MPC concentration in Ket-treated rats compared with control group” value (in vivo [2]; MPC i.p. 50 mg·kg^−1) was “significantly higher”, the “plasma MPC concentrations at 5.0 and 15 min in Ket-treated rats compared with control groups” value (in vivo [2]; MPC i.p. 50 mg·kg^−1, p < 0.01 and p < 0.05) was “significantly higher” and the “clearance (CL) of plasma MPC” value (in vivo [2]; control rats, i.p. administration, present data) was 305 mL/min/kg. For the same molecule, the half-life (in vivo [2]; male, SD, rat, in vivo, ip, control rats, i.p. administration, present data, read-out: t1/2 of plasma MPC) was 50.8 min, the “plasma D-Trp concentrations after MPC pretreatment compared with no pretreatment” value ([3]; Ket-treated rats) was “no significant increase” and the “plasma D-Trp concentrations after MPC pretreatment compared with no pretreatment” value ([3]; control rats) was “significantly higher”. The “clearance (CL) of plasma MPC” value [4] was 3.67 mL/min/kg and the “t1/2 of plasma MPC” value [4] was 335 min.

In the case of `CNC1(c2ccccc2Cl)CCCCC1=O` (centres unmarked) [ketamine], the half-life in plasma [5] is listed as 30 to 36 min.

For `NC1(c2ccccc2Cl)CCCCC1=O` (centres unmarked) [norketamine], the half-life in plasma [5] is listed as 36 to 48 min.
